The supplement of paper PMC10627819

Columns and labels:
[1] = tested on: S. aureus DSM 20231; assay: Bliss interaction score (quartile over a dose matrix) (fitness difference); higher = more antagonism (negative = synergy)
How it was run: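 Fitness here means normalised growth, inferred for single drugs from the combination data. Growth was OD595 at entry into stationary phase, divided by the plate's robust no-drug mean and capped at 1. The Bliss score is observed minus expected fitness, with the expectation being the product, and its quartiles span technical, biological and donor/recipient replicates.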

[2] = tested on: S. aureus Newman; assay: fitness (endpoint OD595 vs no drug) (fraction); higher = more growth
How it was run: (§1)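 Fitness was defined as the optical density at the transition into stationary phase relative to the robust mean of no-drug control wells. Values were capped at 1. Cultures were started at OD595 0.01 in 384-well plates (30 µl, or 55 µl for S. pneumoniae) in TSB, LB Lennox or CY at 37 °C. OD595 was recorded every 30 min over 14 h, with the first reading subtracted as background.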

[3] = tested on: B. subtilis 168; assay: as above
How it was run: as §1

[4] = tested on: S. aureus DSM 20231; assay: as above
How it was run: as §1

[5] = tested on: S. pneumoniae D39V; assay: as above
How it was run: as §1

[6] = first compound 1 µg/mL, partner 0.15 µg/mL
[7] = first compound 1 µg/mL, partner 0.3 µg/mL
[8] = first compound 1 µg/mL, partner 0.6 µg/mL
[9] = first compound 2 µg/mL, partner 0.15 µg/mL
[10] = first compound 2 µg/mL, partner 0.3 µg/mL
[11] = first compound 2 µg/mL, partner 0.6 µg/mL
[12] = first compound 4 µg/mL, partner 0.15 µg/mL
[13] = first compound 4 µg/mL, partner 0.3 µg/mL
[14] = first compound 4 µg/mL, partner 0.6 µg/mL
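Throughout, for Bliss interaction score (quartile over a dose matrix): first quartile when negative (synergy) and third quartile when positive (antagonism).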

With `CNC(C)C1CCC(N)C(OC2C(N)CC(N)C(OC3OCC(C)(O)C(NC)C3O)C2O)O1` (centres undefined) [Gentamicin] + O=C(O)Cc1cc(I)c(Oc2ccc(O)c(I)c2)c(I)c1 [Tiratricol] the Bliss interaction score ([1]; main component drawn) was 0.264.

For `c1ccc2c(CC3=NCCN3)cccc2c1` [Naphazoline] + COc1cc(Cc2cnc(N)nc2N)cc(OC)c1OC [Trimethoprim], the Bliss interaction score [1] was 0.236.

Work on `CN1CCC[C@H]1c1cccnc1` [Nicotine] + CC[C@H]1OC(=O)[C@H](C)C(=O)[C@H](C)[C@@H](O[C@@H]2O[C@H](C)C[C@H](N(C)C)[C@H]2O)[C@](C)(OC)C[C@@H](C)C(=O)[C@H](C)[C@H]2N(CCCCn3cnc(-c4cccnc4)c3)C(=O)O[C@]12C [Telithromycin] yielded a Bliss interaction score [1] of -0.342.

`Cc1onc(-c2ccccc2)c1C(=O)N[C@@H]1C(=O)N2[C@@H]1SC(C)(C)[C@@H]2C(=O)O` [Oxacillin] + CCCSc1nc(N[C@@H]2C[C@H]2c2ccc(F)c(F)c2)c2nnn([C@@H]3C[C@H](OCCO)[C@@H](O)[C@H]3O)c2n1 [Ticagrelor] gave a Bliss interaction score [1] of 0.171.

`Cc1onc(-c2ccccc2)c1C(=O)N[C@@H]1C(=O)N2[C@@H]1SC(C)(C)[C@@H]2C(=O)O` [Oxacillin] + Cc1c(Cl)cccc1Nc1ccccc1C(=O)O [Tolfenamic] gave a Bliss interaction score [1] of 0.138.

With `CN(N=O)C(=O)N[C@@H](C=O)[C@@H](O)[C@H](O)[C@H](O)CO` [Streptozotocin] + CCCSc1nc(N[C@@H]2C[C@H]2c2ccc(F)c(F)c2)c2nnn([C@@H]3C[C@H](OCCO)[C@@H](O)[C@H]3O)c2n1 [Ticagrelor] the Bliss interaction score [1] was 0.221.

Compound `Cc1cc(NS(=O)(=O)c2ccc(N)cc2)no1` [Sulfamethoxazol] + CCCSc1nc(N[C@@H]2C[C@H]2c2ccc(F)c(F)c2)c2nnn([C@@H]3C[C@H](OCCO)[C@@H](O)[C@H]3O)c2n1 [Ticagrelor] has a Bliss interaction score [1] of 0.254.

For `Cc1cc(NS(=O)(=O)c2ccc(N)cc2)no1` [Sulfamethoxazol] + CN(N=O)C(=O)N[C@@H](C=O)[C@@H](O)[C@H](O)[C@H](O)CO [Streptozotocin], the fitness [2, 6] was 0.891, the fitness [2, 7] was 0.754 and the fitness [2, 8] was 0.605. The fitness [2, 9] was 0.868, the fitness [2, 10] was 0.789 and the fitness [2, 11] was 0.587. The fitness [2, 12] was 0.88, the fitness [2, 13] was 0.798 and the fitness [2, 14] was 0.62. The fitness ([2]; first compound 8 µg/mL, partner 0.15 µg/mL, one replicate) was 0.854, the fitness ([2]; first compound 8 µg/mL, partner 0.3 µg/mL, one replicate) was 0.804 and the fitness ([2]; first compound 8 µg/mL, partner 0.6 µg/mL, one replicate) was 0.751. For the same compound, the fitness ([3]; first compound 0.5 µg/mL, partner 0.15 µg/mL, one replicate) was 0.931, the fitness ([3]; first compound 0.5 µg/mL, partner 0.3 µg/mL, one replicate) was 0.904 and the fitness ([3]; first compound 0.5 µg/mL, partner 0.6 µg/mL, one replicate) was 0.943. It also gave a fitness [3, 6] of 0.855, a fitness [3, 7] of 0.847 and a fitness [3, 8] of 0.927. The fitness [3, 9] was 0.85, the fitness [3, 10] was 0.889 and the fitness [3, 11] was 0.889. It also gave a fitness ([3]; first compound 4 µg/mL, partner 0.15 µg/mL, one replicate) of no less than 1, a fitness ([3]; first compound 4 µg/mL, partner 0.3 µg/mL, one replicate) of no less than 1 and a fitness ([3]; first compound 4 µg/mL, partner 0.6 µg/mL, one replicate) of 0.956. It also gave a fitness [4, 6] of 0.794, a fitness [4, 7] of 0.727 and a fitness [4, 8] of 0.632. It also gave a fitness [4, 9] of 0.861, a fitness [4, 10] of 0.735 and a fitness [4, 11] of 0.689. It also gave a fitness [4, 12] of 0.857, a fitness [4, 13] of 0.815 and a fitness [4, 14] of 0.689. For the same compound, the fitness ([5]; first compound 1 µg/mL, partner 1.2 µg/mL) was 0.939, the fitness ([5]; first compound 1 µg/mL, partner 2.4 µg/mL) was 0.94 and the fitness ([5]; first compound 1 µg/mL, partner 4.8 µg/mL) was 0.935. The fitness ([5]; first compound 2 µg/mL, partner 1.2 µg/mL) was 0.944, the fitness ([5]; first compound 2 µg/mL, partner 2.4 µg/mL) was 0.942 and the fitness ([5]; first compound 2 µg/mL, partner 4.8 µg/mL) was 0.953. It also gave a fitness ([5]; first compound 4 µg/mL, partner 1.2 µg/mL) of 0.911, a fitness ([5]; first compound 4 µg/mL, partner 2.4 µg/mL) of 0.899 and a fitness ([5]; first compound 4 µg/mL, partner 4.8 µg/mL) of 0.917.
